# From patent US6531292B1, “Genes and proteins controlling cholesterol synthesis” (The Regents of the University of California, priority 1995, dated 2003)
# Several values for one entry are separate records, joined by “and”; a condition that tells them apart may be missing. Equal entries are not always repeated. Square brackets hold non-standard residues; d marks the D form. Peptide text beside a SMILES is read from it. Nle = CCCC[C@H](N)C(=O)O
# Legend:
# mammalian HMG-R = settings: mammalian cells, previous studies; cited from earlier work
# proteasome = settings: Jensen et al. 1995; cited from earlier work
# hrd mutant yeast strains = test: Canavanine sensitivity of hrd mutant strains on solid medium; format: cell-based; settings: 1.5 μg/ml canavanine, 30° C., one week; versus isogenic parent strain
# Experimental: FIG. 7. Proteasomal phenotypes associate with the hrd2-1 mutant. A) Canavanine sensitivity. Liquid cultures of strains with the indicated mutations, but otherwise isogenic, were spotted onto supplemented minimal medium ([…] of ˜0.5 OD) with or without 1.5 μg/ml canavanine as indicated, and allowed to grow at 30° C. for a week. B) Global ubiquitination. Lysates of the same strains were immunoblotted with affinity-purified anti-ubiquitin antibody to survey the degree of ubiquitination of cellular proteins. The line indicates the position of an 80 kD marker. Equal amounts of protein were loaded in each lane and the transfer efficiency from each lane was identical, as judged by India ink staining. The average increase in the amount of ubiquitin conjugates in the hrd2-1 mutant was approximately threefold over the amount in other strains. C) Complementation of the hrd2-1 mutant by the human TRAP-2 coding region. Strain RHY402 (hrd2-1, Ura^−) was transformed with parent vector pRH98-1, with a centromere plasmid containing the HRD2 gene (pRH482) or with a plasmid that expressed the TRAP-2 coding region from the GAPDH promoter (pRH492). These transformants are noted “vector, HRD2, and TRAP-2”, respectively. Each strain was then streaked on solid medium with 0 (top) or 200 μg/ml (bottom) and allowed to grow at 37° C. […]
# Hmg2p = target: T1, Hmg2p (Saccharomyces cerevisiae, UniProt P12684); test: Hmg2p degradation by cycloheximide chase and stationary chase with immunoblotting; format: cell-based, yeast; settings: small dose of lovastatin (50 μg/ml) added to cultures
# T1 construct: Note the lowered mobility of the 6myc-Hmg2p protein as compare to the native Hmg2p; expressed in transfected cells; host or cells: S. cerevisiae strain RHY183 (hmg1 and hmg2 disrupted; single integrated HMG2 coding region under the GAPDH promoter)
# T1 sequence (P12684 1-1045): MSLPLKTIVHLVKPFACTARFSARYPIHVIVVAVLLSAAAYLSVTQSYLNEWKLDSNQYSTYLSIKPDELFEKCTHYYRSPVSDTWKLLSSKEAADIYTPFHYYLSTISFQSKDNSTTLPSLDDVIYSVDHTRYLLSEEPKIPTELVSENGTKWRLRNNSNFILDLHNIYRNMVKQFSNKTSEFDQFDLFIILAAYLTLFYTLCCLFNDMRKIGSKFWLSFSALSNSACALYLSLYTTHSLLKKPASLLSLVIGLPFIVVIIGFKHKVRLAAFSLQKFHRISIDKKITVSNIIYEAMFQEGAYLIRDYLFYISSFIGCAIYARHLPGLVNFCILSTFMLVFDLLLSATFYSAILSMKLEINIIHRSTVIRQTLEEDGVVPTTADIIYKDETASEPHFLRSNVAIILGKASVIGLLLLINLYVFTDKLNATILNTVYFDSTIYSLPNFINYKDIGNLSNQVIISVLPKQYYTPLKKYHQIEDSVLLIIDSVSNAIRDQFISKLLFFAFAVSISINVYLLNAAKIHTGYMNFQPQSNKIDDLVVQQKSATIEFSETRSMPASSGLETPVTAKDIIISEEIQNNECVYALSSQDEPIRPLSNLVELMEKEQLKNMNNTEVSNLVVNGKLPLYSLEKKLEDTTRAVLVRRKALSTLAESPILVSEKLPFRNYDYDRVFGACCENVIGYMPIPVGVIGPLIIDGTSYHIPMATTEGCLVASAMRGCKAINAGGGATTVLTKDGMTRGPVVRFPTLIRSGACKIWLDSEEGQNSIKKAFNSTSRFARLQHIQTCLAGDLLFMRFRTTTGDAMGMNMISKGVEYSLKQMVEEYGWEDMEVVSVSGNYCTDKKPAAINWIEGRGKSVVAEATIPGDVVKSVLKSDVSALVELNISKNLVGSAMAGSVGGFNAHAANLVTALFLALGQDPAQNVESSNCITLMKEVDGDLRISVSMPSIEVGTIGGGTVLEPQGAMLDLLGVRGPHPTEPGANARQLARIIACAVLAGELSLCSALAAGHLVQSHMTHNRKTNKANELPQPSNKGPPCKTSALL
# Source text: (§1) FIG. 1. 6myc-Hmg2p: an unregulated variant of Hmg2p. A) schematic diagram of the unregulated 6myc-Hmg2p. […] The tagged protein was still capable of catalyzing the reduction of 3-hydroxy-3-methyl glutaryl CoA (HMG-CoA) to mevalonate (MEV), an essential intermediate of cholesterol biosynthesis. B) The degradation of 6myc-Hmg2p was not regulated by the mevalonate pathway. Cells expressing 6myc-Hmg2p (RHY244) or Hmg2p (RHY183) were examined for degradation of each protein by addition of cycloheximide at time zero and subsequent immunoblotting, as described by Hampton and Rine (J Cell Biol 125: 299-312, 1994). In the indicated samples, 50 μg/ml of lovastatin was added along with the cycloheximide at t=0. The 6myc-Hmg2planes (left panel) were immunoblotted using the 9E10 anti-myc antibody, and the Hmg2p lanes (right panel) were immunoblotted with affinity purified anti-Hmg1p protein. Each lane contained lysate from ˜0.2 O.D.600 units of cells. C) Test of 6myc-Hmg2p degradation by “stationary chase.” Log phase (OD600˜0.5) cultures of the strains used in Panel B were allowed to grow for an additional 15 hours at 30° C., and then subjected to lysis and immunoblotting to evaluate degradation of the expressed reductase (Hampton et al., Proc. Natl. Acad. Sci. USA. 93: 828-833, 1996). […]
# 6myc-Hmg2p = 6myc-Hmg2p degradation by cycloheximide chase and stationary chase with immunoblotting; format: cell-based, yeast; settings: small dose of lovastatin (50 μg/ml) added to cultures
# Source text: as §1
# [1] = tested on: strain expressing Hmg2p (RHY183); test: Lovastatin sensitivity (growth, plating efficiency) of strain expressing Hmg2p; format: cell-based, yeast
# [2] = tested on: strain expressing 6myc-Hmg2p (RHY244); test: Lovastatin sensitivity (growth, plating efficiency) of strain expressing 6myc-Hmg2p; format: cell-based, yeast; settings: liquid medium, FIG. 1d
compound,measurement,setting,value
CCCC[C@@H](C=O)NC(=O)[C@H](CC(C)C)NC(=O)[C@H](CC(C)C)NC(C)=O [ALLN] (Ac-Leu-Leu-[Nle]-aldehyde),degradation of mammalian HMG-R,mammalian HMG-R,inhibited
same,inhibition of the proteasome,proteasome,potent inhibitor
N=C(N)NOCC[C@H](N)C(=O)O [canavanine],sensitivity of hrd1 or hrd3 alleles to canavanine,hrd mutant yeast strains,no more sensitive
same,sensitivity of hrd2 mutants to canavanine,hrd mutant yeast strains,heightened sensitivity
CC[C@H](C)C(=O)O[C@H]1C[C@@H](C)C=C2C=C[C@H](C)[C@H](CC[C@@H]3C[C@@H](O)CC(=O)O3)[C@H]21 [lovastatin],effect on degradation of wild-type Hmg2p,Hmg2p,dramatically stabilized
same,effect on degradation of 6myc-Hmg2p,6myc-Hmg2p,unaffected
same,growth of strain,"[1]; hmg1::LYS2 hmg2::HIS3 strain with single integrated HMG2 driven by GAPDH promoter, dose-dependent",blocked
same,plating efficiency of surviving colonies on lovastatin medium,"[1]; non-mutagenized cells expressing wild-type Hmg2p, solid lovastatin-containing medium",0.1-1% and ~1%
same,lovastatin sensitivity relative to isogenic strain expressing HMG2,[2],more sensitive
